Results taken from patent publication US7026339B2, “Inhibitors of HCV NS5B polymerase” (priority 2003, dated 2006).
Read-outs that look alike come from different tables or passages of the source.

Test system: HuH-7 replicon cells 5–15 and 9–13 (HCV replication)
Test: Inhibition of viral replication in HuH-7 replicon cells (HCV RNA / GAPDH RNA by multiplex RT-PCR)
Assay type: cell-based
Details: Hepatitis C virus
In short: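 HCV and GAPDH RNA were measured by multiplex TaqMan RT-PCR (HCV 5′ untranslated region) after 3-day compound treatment at 37 °C, final 100 μM–1 μM in 1% DMSO. Cells were plated 24 h beforehand at 7×10^3/well. Read-out: HCV-to-GAPDH ratio expressed as percent control versus untreated cells.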

[1] = 72 h, inhibiting 50% of replication, HuH-7 replicon cells, 3 days, read-out: IC50

SMILES	IC50 [1] [µM]	IC50 (Huh-7, 72 h) [µM]
O=C(Cc1cccc2occc12)N/N=C/c1ccccc1OS(=O)(=O)c1ccc(C(F)(F)F)cc1 [Compound 65, 2-((E)-{2-[2-(1-benzofuran-4-yl)acetyl]hydrazono}methyl)phenyl 4-(trifluoromethyl)benzenesulfonate]	5 to 50	–
COc1cc(OC)c(CC(=O)N/N=C/c2ccccc2OS(=O)(=O)c2ccc(C(F)(F)F)cc2)c(OC)c1 [Compound 66, 2-((E)-{2-[2-(2,4,6-trimethoxyphenyl)acetyl]hydrazono}methyl)-phenyl 4-(trifluoromethyl)benzenesulfonate]	5 to 50	–
CCOc1ccc(CC(=O)N/N=C/c2ccccc2OS(=O)(=O)c2ccc(C(F)(F)F)cc2)cc1 [Compound 67, 2-((E)-{2-[2-(4-ethoxyphenyl)acetyl]hydrazono}methyl)-phenyl 4-(trifluoromethyl)benzenesulfonate]	5 to 50	–
O=C(Cc1ccc2ccccc2c1)N/N=C/c1ccccc1OS(=O)(=O)c1ccc(C(F)(F)F)cc1 [Compound 68, 2-((E)-{2-[2-(2-naphthyl)acetyl]hydrazono}methyl)phenyl4-(trifluoromethyl)benzenesulfonate]	< 5	–
CS(=O)(=O)c1ccc(CC(=O)N/N=C/c2ccccc2OS(=O)(=O)c2ccc(C(F)(F)F)cc2)cc1 [Compound 69, 2-[(E)-(2-{2-[4-(methylsulfonyl)phenyl]acetyl}hydrazono)-methyl]phenyl 4-(trifluoromethyl)benzenesulfonate]	> 50	–
COc1ccc(CC(=O)N/N=C/c2ccccc2OS(=O)(=O)c2ccc(C(F)(F)F)cc2)cc1Br [Compound 70, 2-((E)-{2-[2-(3-bromo-4-methoxyphenyl)acetyl]hydrazono}methyl)-phenyl 4-(trifluoromethyl)benzenesulfonate]	< 5	–
O=C(N/N=C/c1ccccc1OS(=O)(=O)c1ccc(C(F)(F)F)cc1)c1cccc2ccccc12 [Compound 71, 2-{(E)-[2-(1-naphthoyl)hydrazono]methyl}phenyl 4-(trifluoromethyl)benzenesulfonate]	< 5	–
O=C(N/N=C/c1ccccc1OS(=O)(=O)c1ccc(C(F)(F)F)cc1)c1cc(Cl)ccc1Cl [Compound 72, 2-{(E)-[2-(2,5-dichlorobenzoyl)hydrazono]methyl}phenyl4-(trifluoromethyl)benzenesulfonate]	< 5	–
O=C(N/N=C/c1ccccc1OS(=O)(=O)c1ccc(C(F)(F)F)cc1)c1ccccc1Cl [Compound 73, 2-{(E)-[2-(2-chlorobenzoyl)hydrazono]methyl}phenyl 4-(trifluoromethyl)benzenesulfonate]	< 5	–
O=C(N/N=C/c1ccccc1OS(=O)(=O)c1ccc(C(F)(F)F)cc1)c1ccc(Cl)cc1Cl [Compound 74, 2-{(E)-[2-(2,4-dichlorobenzoyl)hydrazono]methyl}phenyl4-(trifiuoromethyl)benzenesulfonate]	< 5	–
O=C(N/N=C/c1ccccc1OS(=O)(=O)c1ccc(C(F)(F)F)cc1)OCc1ccccc1 [Compound 75, benzyl (2E)-2-[2-({[4-(trifluoromethyl)phenyl]sulfonyl}oxy)-benzylidene]hydrazinecarboxylate]	< 5	–
O=C(N/N=C/c1ccccc1OS(=O)(=O)c1ccc(C(F)(F)F)cc1)c1cccnc1 [Compound 76, 2-{(E)-[2-(pyridin-3-ylcarbonyl)hydrazono]methyl}phenyl 4-(trifluoromethyl)benzenesulfonate]	5 to 50	–
O=C(N/N=C/c1ccccc1OS(=O)(=O)c1ccc(C(F)(F)F)cc1)c1ccccc1[N+](=O)[O-] [Compound 77, 2-{(E)-[2-(2-nitrobenzoyl)hydrazono]methyl}phenyl 4-(trifluoromethyl)benzenesulfonate]	< 5	–
Cc1ccc(S(=O)(=O)N/N=C/c2ccccc2OS(=O)(=O)c2ccc(C(F)(F)F)cc2)cc1 [Compound 78, 2-((E)-{2-[(4-methylphenyl)sulfonyl]hydrazono}methyl)-phenyl 4-(trifluoromethyl)benzenesulfonate]	5 to 50	–
CN(C)c1ccc(C(=O)N/N=C/c2ccccc2OS(=O)(=O)c2ccc(C(F)(F)F)cc2)cc1 [Compound 79, 2-((E)-{2-[4-(dimethylamino)benzoyl]hydrazono}methyl)-phenyl 4-(trifluoromethyl)benzenesulfonate]	5 to 50	–
O=C(CC1CC2CCC1C2)N/N=C/c1ccccc1OS(=O)(=O)c1ccc(C(F)(F)F)cc1 (stereo not shown) [Compound 80, 2-{(E)-[2-(2-bicyclo[2.2.1]hept-2-ylacetyl)hydrazono]methyl}phenyl 4-(trifluoromethyl)benzenesulfonate]	–	< 5
C/C(=N\NC(=O)Cc1cccc(Cl)c1)c1ccccc1OS(=O)(=O)c1ccc(C(F)(F)F)cc1 [Compound 81, 2-{(1E)-N-[(3-chlorophenyl)acetyl]ethanehydrazonoyl}-phenyl 4-(trifluoromethyl)benzenesulfonate]	> 50	–

SMILES	IC50 [1] [µM]	IC50 (Huh-7, 72 h) [µM]
O=C(Cc1nc(-c2cnccn2)no1)N/N=C/c1ccccc1OS(=O)(=O)c1ccc(C(F)(F)F)cc1 [Compound 82, 2-((E)-{2-[2-(3-pyrazin-2-yl-1,2,4-oxadiazol-5-yl)acetyl]hydrazono}methyl)phenyl 4-(trifluoromethyl)benzenesulfonate]	5 to 50	–
CSc1ncccc1C(=O)N/N=C/c1ccccc1OS(=O)(=O)c1ccc(C(F)(F)F)cc1 [Compound 83, 2-[(E)-(2-{[2-(methylthio)pyridin-3-yl]carbonyl}hydrazono)methyl]phenyl 4-(trifluoromethyl)benzenesulfonate]	< 5	–
O=C(CC1CCCC1)N/N=C/c1ccccc1OS(=O)(=O)c1ccc(C(F)(F)F)cc1 [Compound 84, 2-{(E)-[2-(2-cyclopentylacetyl)hydrazono]methyl}phenyl4-(trifluoromethyl)benzenesulfonate]	< 5	–
CCOc1ccccc1C(=O)N/N=C/c1ccccc1OS(=O)(=O)c1ccc(C(F)(F)F)cc1 [Compound 85, 2-{(E)-[2-(2-ethoxybenzoyl)hydrazono]methyl}phenyl4-(trifluoromethyl)benzenesulfonate]	> 50	–
CN(C)c1cccc(OCC(=O)N/N=C/c2ccccc2OS(=O)(=O)c2ccc(C(F)(F)F)cc2)c1 [Compound 86, 2-[(E)-(2-{2-[3-(dimethylamino)phenoxy]acetyl}hydrazono)-methyl]phenyl 4-(trifluoromethyl)benzenesulfonate]	> 50	–
COc1ccccc1C(=O)N/N=C/c1ccccc1OS(=O)(=O)c1ccc(C(F)(F)F)cc1 [Compound 87, 2-{(E)-[2-(2-methoxybenzoyl)hydrazono]methyl}phenyl4-(trifluoromethyl)benzenesulfonate]	> 50	–
O=C(N/N=C/c1ccccc1OS(=O)(=O)c1ccc(C(F)(F)F)cc1)c1ccccc1Br [Compound 88, 2-{(E)-[2-(2-bromobenzoyl)hydrazono]methyl}phenyl4-(trifluoromethyl)benzenesulfonate]	< 5	–
O=C(N/N=C/c1ccccc1OS(=O)(=O)c1ccc(C(F)(F)F)cc1)c1cnccc1C(F)(F)F [Compound 89, 2-[(E)-(2-{[4-(trifluoromethyl)pyridin-3-yl]carbonyl}hydrazono)methyl]phenyl 4-(trifluoromethyl)benzenesulfonate]	5 to 50	–
O=C(N/N=C/c1ccccc1OS(=O)(=O)c1ccc(C(F)(F)F)cc1)c1ccccc1F [Compound 90, 2-{(E)-[2-(2-fluorobenzoyl)hydrazono]methyl}phenyl 4-(trifluoromethyl)benzenesulfonate]	5 to 50	–
O=C(N/N=C/c1ccccc1OS(=O)(=O)c1ccc(C(F)(F)F)cc1)C1CCN(Cc2ccccc2)C1=O (stereo not shown) [Compound 91, 2-((E)-{2-[(1-benzyl-2-oxopyrrolidin-3-yl)carbonyl]hydrazono}methyl)phenyl 4-(trifluoromethyl)benzenesulfonate]	> 50	–
Cc1ncccc1C(=O)N/N=C/c1ccccc1OS(=O)(=O)c1ccc(C(F)(F)F)cc1 [Compound 92, 2-((E)-{2-[(2-methylpyridin-3-yl)carbonyl]hydrazono}methyl)phenyl 4-(trifluoromethyl)benzenesulfonate]	5 to 50	–
Cc1cccnc1C(=O)N/N=C/c1ccccc1OS(=O)(=O)c1ccc(C(F)(F)F)cc1 [Compound 93, 2-((E)-{2-[(3-methylpyridin-2-yl)carbonyl]hydrazono}methyl)phenyl 4-(trifluoromethyl)benzenesulfonate]	> 50	–
O=C(CC12CC3CC(CC(C3)C1)C2)N/N=C/c1ccccc1OS(=O)(=O)c1ccc(C(F)(F)F)cc1 [Compound 94, 2-((E)-{2-[2-(1-adamantyl)acetyl]hydrazono}methyl)phenyl4-(trifluoromethyl)benzenesulfonate]	> 50	–
O=C(CC1CCCO1)N/N=C/c1ccccc1OS(=O)(=O)c1ccc(C(F)(F)F)cc1 (stereo not shown) [Compound 95, 2-{(E)-[2-(2-tetrahydrofuran-2-ylacetyl)hydrazono]methyl}phenyl4-(trifluoromethyl)benzenesulfonate]	< 5	–
COc1cccc(CNc2cccc(CC(=O)N/N=C/c3ccccc3OS(=O)(=O)c3ccc(C(F)(F)F)cc3)c2)c1 [Compound 96, 2-{(E)-[2-(2-{3-[(3-methoxybenzyl)amino]phenyl}acetyl)hydrazono]methyl}phenyl 4-(trifluoromethyl)benzenesulfonate]	> 50	–
O=C(Cc1cccc(-n2cccc2)c1)N/N=C/c1ccccc1OS(=O)(=O)c1ccc(C(F)(F)F)cc1 [Compound 97, 2-[(E)-(2-{2-[3-(1H-pyrrol-1-yl)phenyl]acetyl}hydrazono)methyl]phenyl4-(trifluoromethyl)benzenesulfonate]	> 50	–
O=C(Cc1cccc(N2CCCC2)c1)N/N=C/c1ccccc1OS(=O)(=O)c1ccc(C(F)(F)F)cc1 [Compound 98, 2-((E)-{2-[2-(3-pyrrolidin-1-ylphenyl)acetyl]hydrazono}methyl)phenyl4-(trifluoromethyl)benzenesulfonate]	5 to 50	–
